Source: patent US10323023B2, “Rho-associated protein kinase inhibitor, pharmaceutical composition comprising the same, as well as preparation method and use thereof” (Beijing Tide Pharmaceutical Co., Ltd., priority 2017, dated 2019)
pIC50: −log10 of the molar value.

Each molecule was assayed against ROCK2 (Homo sapiens (Human), UniProt O75116) (assay: ROCK2 kinase IC50 by HTRF KinEASE-STK S2 kit). Details: 2 hours at room temperature, ROCK2 (01-119) from Carna Biosciences.
ROCK2, sequence (O75116 1-553 limits assumed): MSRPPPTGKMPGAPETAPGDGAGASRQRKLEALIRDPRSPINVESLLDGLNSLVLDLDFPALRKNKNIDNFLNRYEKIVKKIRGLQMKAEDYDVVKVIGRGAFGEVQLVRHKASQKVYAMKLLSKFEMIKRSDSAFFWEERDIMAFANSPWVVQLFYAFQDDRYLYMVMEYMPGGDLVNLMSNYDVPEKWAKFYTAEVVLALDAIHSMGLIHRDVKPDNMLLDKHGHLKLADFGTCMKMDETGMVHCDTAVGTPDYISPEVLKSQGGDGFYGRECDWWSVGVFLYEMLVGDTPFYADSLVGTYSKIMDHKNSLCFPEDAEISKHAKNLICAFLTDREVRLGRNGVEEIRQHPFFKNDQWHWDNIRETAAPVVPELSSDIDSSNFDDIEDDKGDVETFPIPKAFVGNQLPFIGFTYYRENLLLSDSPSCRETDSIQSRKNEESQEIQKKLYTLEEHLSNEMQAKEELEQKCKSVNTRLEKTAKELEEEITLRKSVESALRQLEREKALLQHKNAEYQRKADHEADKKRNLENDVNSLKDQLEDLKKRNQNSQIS
Format: biochemical
Experimental: The kinase IC50 was determined by a commercialized CISBIO kinase detection kit, HTRF KinEASE-STK S2 kit (62ST2PEC). ROCK2 (01-119) employed in the reaction was purchased from Carna Biosciences.
Before the assay, the following working solutions as needed were formulated with corresponding reagents according to the instruction of the kinase detection kit: 1×kinase buffer, 5×STK-S2 substrate working solution (1.5 μM) and 5×ATP working solution (1.5 μM), 5×ROCK2 kinase working solution, 4×Streptavidin-XL665 working solution, and 4×STK-Ab-Cryptate 2 detection solution. Then the assay was performed according to the following procedure.
A solution of a compound at a concentration of 10000 nM was prepared with the 1×kinase buffer containing 2.5% DMSO. Gradient dilution of the solution of the compound was performed with the kinase buffer containing DMSO, so as to obtain solutions of a test compound at 9 different concentrations. In addition to wells of test compounds, a positive well (containing all the reagents except the compound) and a negative well (containing all the reagents except the test compound and kinase) were set. Except for the control wells (positive and negative wells), a solution of a test compound (4 μL) was added to each of the reaction wells, and a solution of 2.5% DMSO was added to the control wells. Then the substrate (2 μM, i.e., 2 μL 5×STK-S2 substrate working solution) was added to each of the reaction wells. The 5×ROCK2 kinase working solution (2 μL, containing 1.4 ng ROCK2 kinase) was added to each of the reaction wells except for the negative well, the volume of which was made up with the 1×kinase buffer (2 μL). The 5×ATP working solution (2 μL) was added to each of the reaction wells, and the mixtures were incubated at room temperature for 2 hours. After the kinase reaction was complete, the 4×Streptavidin-XL665 working solution was added to each of the reaction wells, the solutions were mixed, followed by immediate addition of the 4×STK-Ab-Cryptate 2 detection solution (5 μL), and the mixtures were incubated at room temperature for 1 hour. The fluorescence signal was read on ENVISION (Perkinelmer) (excitation wavelength: 320 nm, and emission wavelength: 665 nm and 615 nm). The inhibitory rate in each well was calculated based on the fluorescence intensity value: ER (Emission Ratio)=(fluorescence intensity at 665 nm/fluorescence intensity at 615 nm); inhibitory rate=(ERpositive−ERtest compound)/(ERpositive−ERnegative)*100%. Curves were plotted and fitted to obtain the median inhibitory concentration (IC50) of each test compound with the PRISM 5.0 software.
In the case of `O=C(Nc1ccnnc1)c1cc2ccc(-c3nccc(Nc4ccc5[nH]ncc5c4)n3)cc2s1` [TDI01116, 6-(4-((1H-indazol-5-yl)amino)pyrimidin-2-yl)-N-(pyridazin-4-yl)benzo[b]thiophene-2-carboxamide], the pIC50 was 6.63. For `O=C(Nc1ccnnc1)c1cc2ccc(-c3nccc(Nc4ccc5[nH]ncc5c4)n3)cc2[nH]1` [TDI01152, 6-(4-((1H-indazol-5-yl)amino)pyrimidin-2-yl)-N-(pyridazin-4-yl)-1H-indole-2-carboxamide], the pIC50 was 7.06. Work on `O=C(Nc1ccnnc1)c1cc2ccc(-c3nc(Nc4ccc5[nH]ncc5c4)cc4nccn34)cc2[nH]1` [TDI01164, 6-(7-((1H-indazol-5-yl)amino)imidazo[1,2-c]pyrimidin-5-yl)-N-(pyridazin-4-yl)-1H-indole-2-carboxamide] yielded a pIC50 of 6.36. In the case of `O=C(Nc1ccnnc1)c1cc2ccc(-c3ncnc(Nc4ccc5[nH]ncc5c4)n3)cc2[nH]1` [TDI01167, 6-(4-((1H-indazol-5-yl)amino)-1,3,5-triazin-2-yl)-N-(pyridazin-4-yl)-1H-indole-2-carboxamide], the pIC50 was 6.65. `O=C(Nc1ccnnc1)c1cc2ccc(-c3nc(Nc4ccc5[nH]ncc5c4)c4sccc4n3)cc2[nH]1` [TDI01175, 6-(4-((1H-indazol-5-yl)amino)thieno[3,2-d]pyrimidin-2-yl)-N-(pyridazin-4-yl)-1H-indole-2-carboxamide] gave a pIC50 of 6.71. Work on `O=C(NCc1ccnnc1)c1cc2ccc(-c3nccc(Nc4ccc5[nH]ncc5c4)n3)cc2[nH]1` [TDI01178, 6-(4-((1H-indazol-5-yl)amino)pyrimidin-2-yl)-N-(pyridazin-4-ylmethyl)-1H-indole-2-carboxamide] yielded a pIC50 of 6.77. `O=C(Nc1ccnnc1Cl)c1cc2ccc(-c3nccc(Nc4ccc5[nH]ncc5c4)n3)cc2[nH]1` [TDI01180, 6-(4-((1H-indazol-5-yl)amino)pyrimidin-2-yl)-N-(3-chloro-pyridazin-4-yl)-1H-indole-2-carboxamide] was tested, and the pIC50 was 7.43. Molecule `O=C(Nc1cnncc1Cl)c1cc2ccc(-c3nccc(Nc4ccc5[nH]ncc5c4)n3)cc2[nH]1` [TDI01181, 6-(4-((1H-indazol-5-yl)amino)pyrimidin-2-yl)-N-(5-chloro-pyridazin-4-yl)-1H-indole-2-carboxamide] has a pIC50 of 7.04. `O=C(Nc1ccnnc1)c1cc2cc(-c3nccc(Nc4ccc5[nH]ncc5c4)n3)ccc2[nH]1` [TDI01188, 5-(4-((1H-indazol-5-yl)amino)pyrimidin-2-yl)-N-(pyridazin-4-yl)-1H-indole-2-carboxamide] showed a pIC50 of 6.91. In the case of `O=C(Nc1ccnnc1)c1c[nH]c2ccc(-c3nccc(Nc4ccc5[nH]ncc5c4)n3)cc12` [TDI01191, 5-(4-((1H-indazol-5-yl)amino)pyrimidin-2-yl)-N-(pyridazin-4-yl)-1H-indole-3-carboxamide], the pIC50 was 6.65. Molecule `Cn1c(C(=O)Nc2ccnnc2)cc2ccc(-c3nccc(Nc4ccc5[nH]ncc5c4)n3)cc21` [TDI01201, 6-(4-((1H-indazol-5-yl)amino)pyrimidin-2-yl)-1-methyl-N-(pyridazin-4-yl)-1H-indole-2-carboxamide] has a pIC50 of 7.32. `O=C(Nc1ccnnc1)c1cc2ccc(-c3ncc(F)c(Nc4ccc5[nH]ncc5c4)n3)cc2[nH]1` [TDI01213, 6-(4-((1H-indazol-5-yl)amino)-5-fluoro-pyrimidin-2-yl)-N-(pyridazin-4-yl)-1H-indole-2-carboxamide] was tested, and the pIC50 was 6.59. `Cc1nc(-c2ccc3cc(C(=O)Nc4ccnnc4)[nH]c3c2)nc(Nc2ccc3[nH]ncc3c2)c1C` [TDI01232, 6-(4-((1H-indazol-5-yl)amino)-5,6-dimethylpyrimidin-2-yl)-N-(pyridazin-4-yl)-1H-indole-2-carboxamide] gave a pIC50 of 6.53. For `O=C(Nc1ccnnc1)c1ccc2ccc(-c3nccc(Nc4ccc5[nH]ncc5c4)n3)cc2n1` [TDI01236, 7-(4-((1H-indazol-5-yl)amino)pyrimidin-2-yl)-N-(pyridazin-4-yl)quinoline-2-carboxamide], the pIC50 was 6.87. In the case of `O=C(Nc1ccnnc1)N1Cc2ccc(-c3nccc(Nc4ccc5[nH]ncc5c4)n3)cc2C1` [TDI01237, 5-(4-((1H-indazol-5-yl)amino)pyrimidin-2-yl)-N-(pyridazin-4-yl)isoindoline-2-carboxamide], the pIC50 was 6.77. Work on `Cc1cnc(-c2ccc3cc(C(=O)Nc4ccnnc4)[nH]c3c2)nc1Nc1ccc2[nH]ncc2c1` [TDI01250, 6-(4-((1H-indazol-5-yl)amino)-5-methyl-pyrimidin-2-yl)-N-(pyridazin-4-yl)-1H-indole-2-carboxamide] yielded a pIC50 of 6.68. `Cc1cc(Nc2ccc3[nH]ncc3c2)nc(-c2ccc3cc(C(=O)Nc4ccnnc4)[nH]c3c2)n1` [TDI01251, 6-(4-((1H-indazol-5-yl)amino)-6-methyl-pyrimidin-2-yl)-N-(pyridazin-4-yl)-1H-indole-2-carboxamide] gave a pIC50 of 7.00. In the case of `Cc1c(Nc2ccnc(-c3ccc4cc(C(=O)Nc5ccnnc5)[nH]c4c3)n2)ccc2[nH]ncc12` [TDI01276, 6-(4-((4-methyl-1H-indazol-5-yl)amino)pyrimidin-2-yl)-N-(pyridazin-4-yl)-1H-indole-2-carboxamide], the pIC50 was 6.95. In the case of `CN(C(=O)c1cc2ccc(-c3nccc(Nc4ccc5[nH]ncc5c4)n3)cc2[nH]1)c1ccnnc1` [TDI01347, 6-(4-((1H-indazol-5-yl)amino)pyrimidin-2-yl)-N-methyl-N-(pyridazin-4-yl)-1H-indole-2-carboxamide], the pIC50 was 6.45.
